Results: patent US10253039B2, “Inhibitors of bacterial DNA gyrase with efficacy against gram-negative bacteria” (priority 2014, dated 2019)
Values after ≈ are worked out from the molar mass of the structure shown. Where two headings read alike, the source gives them in different places.

Experiments:
Assay type in all cases: cell-based
Edwardsiella tarda = test: MIC, microdilution in 96-well plates
Outline: (§1)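 After 16-18 h shaking incubation at 37 °C, MIC was read visually as the lowest concentration without turbidity. Compounds were 2-fold serially diluted in LB medium seeded with a 1:10000 inoculum, following the CLSI microdilution protocol.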

E. coli BW25113 = test: MIC, microdilution in 96-well plates; conditions: Escherichia coli, read-out: MIC
Outline: as §1

Streptococcus pyogenes = test: MIC, 20-strain panel
Outline: as §1

Streptococcus agalactiae = test: MIC, 20-strain panel
Outline: as §1

E. coli MG1655 = test: MIC, 20-strain panel; conditions: Escherichia coli, read-out: MIC
Outline: as §1

Shigella flexneri = test: MIC, 20-strain panel
Outline: as §1

[1] = tested on: Salmonella enterica subsp. enterica typhimurium; test: MIC, 20-strain panel
Outline: as §1

[2] = tested on: Staphylococcus aureus subsp. aureus; test: MIC, 20-strain panel; conditions: read-out: MIC
Outline: as §1

[3] = tested on: Klebsiella pneumoniae subsp. pneumoniae; test: MIC, 20-strain panel
Outline: as §1

[4] = tested on: Staphylococcus epidermidis; test: MIC, 20-strain panel
Outline: as §1

[5] = tested on: Staphylococcus saprophyticus subsp. saprophyticus; test: MIC, 20-strain panel
Outline: as §1

E. coli JW5503 (deltolC) = test: MIC, 20-strain panel; conditions: Escherichia coli
Outline: as §1

[6] = F: Salmonella enterica subsp. enterica Typhimurium
[7] = H: Staphylococcus aureus subsp. aureus
[8] = E: Klebsiella pneumoniae subsp. pneumoniae
[9] = Salmonella enterica subsp. enterica Typhimurium
[10] = Staphylococcus aureus subsp. aureus
[11] = Klebsiella pneumoniae subsp. pneumoniae

Row | Compound | MIC (Edwardsiella tarda; D: Edwardsiella tarda) [µg/mL] | MIC (E. coli BW25113; BW25113, B: E. coli BW25113) [µg/mL] | MIC (Streptococcus pyogenes) [µg/mL] | MIC (Streptococcus agalactiae) [µg/mL] | MIC (E. coli MG1655; MG1655, A: E. coli MG1655) [µg/mL] | MIC (Shigella flexneri; G: Shigella flexneri) [µg/mL] | MIC [1, 6] [µg/mL] | MIC [2, 7] [µg/mL] | MIC [3, 8] [µg/mL] | MIC [4] [µg/mL] | MIC [5] [µg/mL] | MIC (E. coli JW5503 (deltolC); C: E. coli JW5503 (deltolC)) [µg/mL] | MIC (Edwardsiella tarda) [µg/mL] | MIC (E. coli BW25113; BW25113, E. coli BW25113) [µg/mL] | MIC (E. coli MG1655; MG1655, E. coli MG1655) [µg/mL] | MIC (Shigella flexneri) [µg/mL] | MIC [1, 9] [µg/mL] | MIC [2, 10] [µg/mL] | MIC [3, 11] [µg/mL] | MIC (E. coli JW5503 (deltolC); E. coli JW5503 (deltolC)) [µg/mL]
1 | O=S(=O)(N[C@@H]1CCN(Cc2ccc(OC3CCCC3)cc2)C1)c1cccc(OC(F)(F)F)c1 [Compound 45] | > 8 | > 8 | > 8 | > 8 | > 8 | > 8 | > 8 | > 8 | > 8 | 8 (≈ 16.5 µM) | > 8 | 2 (≈ 4.13 µM) |  |  |  |  |  |  |  | 
2 | Cc1c(S(=O)(=O)N[C@@H]2CCN(Cc3ccc(OC(C)C)cc3)C2)sc2ccc(Cl)cc12 [Compound 83] | > 8 | > 8 | 8 (≈ 16.7 µM) | > 8 | > 8 | > 8 | > 8 | ~8 (≈ 16.7 µM) | > 8 | 8 (≈ 16.7 µM) | > 8 | 8 (≈ 16.7 µM) |  |  |  |  |  |  |  | 
3 | CSc1ccc(CN2CC[C@@H](NS(=O)(=O)c3cccc(OC(F)(F)F)c3)C2)cc1 [Compound 176] |  |  | > 8 | > 8 |  |  |  |  |  | > 8 | > 8 |  | > 8 | > 8 | > 8 | > 8 | > 8 | > 8 | > 8 | 8 (≈ 17.9 µM)
4 | O=S(=O)(N[C@@H]1CCN(Cc2ccc(OC3CC3)cc2)C1)c1cc(S(=O)(=O)c2ccccc2)cs1 [Compound 65] | > 8 | > 8 | > 8 | > 8 | > 8 | > 8 | > 8 | > 8 | > 8 | > 8 | > 8 | > 8 |  |  |  |  |  |  |  | 
5 | CC(C)Oc1ccc(CN2CC[C@@H](NS(=O)(=O)c3ncc[nH]3)C2)cc1 [Compound 136] |  |  | > 8 | > 8 |  |  |  |  |  | > 8 | > 8 |  | > 8 | > 8 | > 8 | > 8 | > 8 | > 8 | > 8 | ~8 (≈ 21.9 µM)
6 | N#Cc1cccc(S(=O)(=O)N[C@@H]2CCN(Cc3ccc(-n4ccnn4)cc3)C2)c1 [Compound 7] | > 8 | > 8 | > 8 | > 8 | > 8 | > 8 | > 8 | > 8 | > 8 | > 8 | > 8 | 8 (≈ 19.6 µM) |  |  |  |  |  |  |  | 
7 | Cc1c(CN2CC[C@@H](NS(=O)(=O)c3cccc(C#N)c3)C2)cnn1-c1ccccc1 [Compound 30] | > 8 | > 8 | > 8 | > 8 | > 8 | > 8 | > 8 | > 8 | > 8 | > 8 | > 8 | > 8 |  |  |  |  |  |  |  | 
8 | COc1ccccc1-c1ccc(CN2CC[C@@H](NS(=O)(=O)c3cccc(C#N)c3)C2)cc1 [Compound 127] | > 8 | > 8 | > 8 | > 8 | > 8 | > 8 | > 8 | > 8 | > 8 | > 8 | > 8 | 4 (≈ 8.94 µM) |  |  |  |  |  |  |  | 
9 | O=S(=O)(N[C@@H]1CCN(Cc2ccc(-c3ccccc3)cc2)C1)c1cncc(F)c1 [Compound 147] |  |  | > 8 | > 8 |  |  |  |  |  | > 8 | > 8 |  | > 8 | > 8 | > 8 | > 8 | > 8 | > 8 | > 8 | 8 (≈ 19.4 µM)
10 | CC(C)Oc1c(Cl)cc(CN2CC[C@@H](NS(=O)(=O)c3cccc(C#N)c3)C2)cc1Cl [Compound 116] | > 8 | > 8 | > 8 | > 8 | > 8 | > 8 | > 8 | > 8 | > 8 | > 8 | > 8 | > 8 |  |  |  |  |  |  |  | 
11 | Cc1ccc(C#N)cc1S(=O)(=O)N[C@@H]1CCN(Cc2ccc(OC(C)C)cc2)C1 [Compound 112] | > 8 | > 8 | > 8 | > 8 | > 8 | > 8 | 4 (≈ 9.67 µM) | > 8 | > 8 | > 8 | > 8 | 0.25 (≈ 0.605 µM) |  |  |  |  |  |  |  | 
12 | Cc1ccc(S(=O)(=O)N[C@@H]2CCN(Cc3ccc(OC4CC4)cc3)C2)cc1C#N [Compound 162] |  |  | > 8 | > 8 |  |  |  |  |  | > 8 | > 8 |  | > 8 | > 8 | > 8 | > 8 | > 8 | > 8 | > 8 | > 8
13 | Cc1c(CN2CC[C@@H](NS(=O)(=O)c3cccc(C(F)(F)F)c3)C2)cnn1-c1ccccc1 [Compound 56] | > 8 | > 8 | > 8 | > 8 | > 8 | > 8 | > 8 | > 8 | > 8 | > 8 | > 8 | > 8 |  |  |  |  |  |  |  | 
14 | CS(=O)(=O)c1ccc(Cl)c(S(=O)(=O)N[C@@H]2CCN(Cc3ccc(OC4CC4)cc3)C2)c1 [Compound 151] |  |  | > 8 | > 8 |  |  |  |  |  | > 8 | > 8 |  | > 8 | > 8 | > 8 | > 8 | > 8 | > 8 | > 8 | ~8 (≈ 16.5 µM)
15 | Cc1ccc(S(=O)(=O)N[C@@H]2CCN(Cc3ccc(OC4CC4)cc3)C2)cn1 [Compound 175] |  |  | > 8 | > 8 |  |  |  |  |  | > 8 | > 8 |  | > 8 | > 8 | > 8 | > 8 | > 8 | > 8 | > 8 | > 8
16 | Cc1c(S(=O)(=O)N[C@@H]2CCN(Cc3ccc(-c4ccccc4)cc3)C2)sc2ccc(Cl)cc12 [Compound 82] | > 8 | > 8 | > 8 | > 8 | > 8 | > 8 | > 8 | > 8 | > 8 | > 8 | > 8 | > 8 |  |  |  |  |  |  |  | 
